These results are taken from patent publication US20220054588A1, “USE OF SAP FOR THE TREATMENT OF EUROTIOMYCETES FUNGI INFECTIONS” (HUMANITAS MIRASOLE S.P.A., priority 2018, published 2022).

Assay [1] concerns A. fumigatus. Description: Therapy of invasive aspergillosis in cyclophosphamide-immunosuppressed mice (survival, lung CFU). It is filed as in vivo. The note with it: for MST / survival: 4 mg/Kg i.p. at 2 and 24 h; for survival: cyclophosphamide-treated mice. The protocol:
FIG. 12 depicts the therapeutic efficacy of SAP in treatment of invasive aspergillosis. a) b) c) survival of transiently immunosuppressed wt mice after injection with the indicated doses of AF conidia. The curve of untreated mice (n=3) with cyclophosphamide is also shown (a). Human SAP (4 mg/Kg) was injected at 2 h and 24 h after infection. a) AF 5.10^7, n=17; AF 5.10^7+SAP, n=15; b) AF 1.10^7, n=7; AF 1.10^7+SAP, n=8; c) AF 5.10^6, n=8; AF 5.10^6+SAP, n=10.***, P<0.005 SAP-treated vs. saline (Mantel-Cox test). One-way ANOVA, P<0.0001. d) lung CFU in mice treated with cyclophosphamide and infected with 1.10^7 AF conidia.*, P<0.05 (Mann-Whitney test). e) quantitative analysis of AF viability performed using a resazurin-based assay. Plasma (30%) from wt and Apcs^−/− mice were incubated (1 min) with 1.5×10^5 AF conidia pre-opsonized or not with SAP. Results are mean±SD of red fluorescence (excitation/emission 535/580-610 nm) intensity of the resazurin once reduced to resorufin within viable cells. Effect of Posaconazole (POC; 1 μM) exposure is also shown. Results are mean±SEM relative to the condition without serum (grey symbols) of two experiments performed with n=10 mice/group. […] AF viability assay performed in sera depleted from complement components. Figure summarizes one experiment out of 5 also conducted with serum 10%. Mean±SD.*, P<0.05; **, P<0.01 (unpaired t-test). g) and h) FACS analysis of MAC deposition on AF conidia (1×10^7) in presence of sera depleted from complement components (e) and the effect of SAP (f). Mean±SEM of 2 experiments performed out of 4. e, f,*, P<0.05;**, P<0.01;***, P<0.005;****, P<0.001; (Mann-Whitney test).
FIG. 13 depicts the therapeutic efficacy of SAP in treatment of invasive aspergillosis alone or in combination with posaconazole. Survival of transiently cyclophosphamide-immunosuppressed mice after injection with 5×10^7 conidia. Human SAP (4 mg/Kg) and Posaconazole (POS; 1.6 mg/Kg) were injected at 16 h and 40 h after infection. AF 5.10^7+ saline, n=9; AF 5.10^7+SAP, n=8; AF 5.10^7+POS, n=9; AF 5.10^7+SAP+POS, n=8. P<0.01, saline vs. hSAP; P<0.005, saline vs. POS; P<0.0005, saline vs. hSAP+POS; P<0.05, POS vs. hSAP+POS; (Mantel-Cox test).
(§1) The growth and culture conditions of A. fumigatus and A. Flavus conidia were as described (Garlanda et al., 2002). For intratracheal (i.t.) injection, mice were anesthetized by i.p. injection of ketamine (100 mg/Kg; i.p.) and xylazine (10 mg/Kg i.p.). After surgical exposure, a volume of 50 μl PBS^2+, pH 7.4, containing 1×10^8 or 5×10^7 resting conidia (>95% viable, as determined by serial dilution and plating of the inoculum on Sabouraud dextrose agar) were delivered into trachea under direct vision using a catheter connected to the outlet of a micro-syringe (Terumo, Belgium). Survival to infection was daily monitored for 10d later. Dying mice were euthanized after evaluation of the following clinical parameters: body temperature dropping, intermittent respiration, solitude presence, sphere posture, fur erection, non-responsive alertness, and inability to ascent when induced.
In therapy experiments, immunosuppression was induced by i.p. injection of 150 mg/Kg cyclophosphamide (150μl per mouse of 20 mg/ml solution) 2d before infection. Native human SAP (Merck-Millipore) was dialysed in PBS (pH 7.4) in order to eliminate sodium azide and i.p. injected at the dose of 4 mg/Kg at 2 and 24 h after infection or in combination with Posaconazole (POS; 1.6 mg/Kg) at 16 h and 40 h after infection.
Lung homogenates and analysis. Lungs were removed 16 h after infection and homogenized in 1 ml PBS, pH 7.4, containing 0.01% (vol/vol) Tween-20® (Merck-Millipore) and protease inhibitors. Samples were serially diluted 1:10 in PBS and plated on Sabouraud dextrose agar for blinded CFU counting. […]

For assay [2], the system named is A. fumigatus. Description: Rescue experiment: survival after i.t. injection of Sap-opsonised A. fumigatus conidia. It is filed as in vivo, mice. The settings on record: 5×10^7 i.t. On the procedure: FIG. 5 depicts the rescue of susceptibility to A. fumigatus in SAP-deficient mice. a) b) c) d) i.t. injection of non-opsonised or Sap-opsonised AF conidia. a) survival of wt and Apcs^−/− mice. Wt, n=10; wt+Sap, n=10; Apcs^−/−, n=14; Apcs^−/−+Sap, n=13.****, P<0.0001, wt vs. Apcs^−/− or Apcs^−/− vs. Apcs^−/−+Sap (Mantel-Cox test). b) and c) levels of TNF-α (b) and MPO (c) in BALFs of mice (16 h). b),****, P<0.0001;**, P<0.01. c),***, P<0.0005. d, FACS analysis of neutrophil recruitment in lung (16 h). Mean±SEM.****, P<0.0001;*, P<0.05. b), c), d), Mean±SEM; Mann-Whitney test.
as §1
In experiments of in vivo phagocytosis, mice were i.t. injected with 5×10^7 heat inactivated fluorescein isothiocyanate (FITC)-labelled conidia and euthanized 4 h later. In rescue experiments, conidia (1×10^9) were opsonized with murine recombinant SAP (50 μg/ml; R&D Systems) for 1 h at r.t. in PBS, pH 7.4, containing 0.01% (vol/vol) Tween-20® (Merck-Millipore). After washing of unbound protein, a volume of 50 μl (5×10^7 conidia) was i.t. injected.

Turning to “human native SAP: Native SAP from human serum purchased by Merck-Millipore; Serum Amyloid P component, SEQ ID NO: 1”, the MST in assay [1] (1×10^7 conidia) is listed as over 10; in assay [1] (5×10^6 conidia), over 10; in assay [1] (5×10^7 conidia) it was 4. In addition, the survival in assay [1] (1×10^7 conidia) worked out at 62.5%; in assay [1] (5×10^6 conidia), 80%; in assay [1] (5×10^7 conidia), 20%. For the same molecule, the “lung fungal burden, median” value in assay [1] (16 h, 1×10^7 conidia, SAP-treated mice) is listed as 2.0×10^6 CFU. Moreover, the “reduction in fungal burden in lung” value in assay [1] (16 h, 1×10^7 conidia, SAP-treated vs. untreated) was 12 fold.

B1: recombinant murine SAP: recombinant murine SAP from mouse myeloma cell line NSO (R&D Systems) (protein, UniProt P12246 21-224, looked up)
Serum amyloid P-component: QTDLKRKVFVFPRESETDHVKLIPHLEKPLQNFTLCFRTYSDLSRSQSLFSYSVKGRDNELLIYKEKVGEYSLYIGQSKVTVRGMEEYLSPVHLCTTWESSSGIVEFWVNGKPWVKKSLQREYTVKAPPSIVLGQEQDNYGGGFQRSQSFVGEFSDLYMWDYVLTPQDILFVYRDSPVNPNILNWQALNYEINGYVVIRPRVWD
As to B1, in assay [2] (Apcs−/− mice), the MST was over 10 days and the “mice that resisted infection (survival)” value was found to be 69%. For the same molecule, in assay [2] (wt mice), the MST is over 10 and the survival stood at 70%.
